Assay results taken from ChEMBL document CHEMBL5046215, “Heparan Sulfate Mimetics Differentially Affect Homologous Chemokines and Attenuate Cancer Development” (J Med Chem, 2021).
The source made the active and inactive calls. No cut-off for these calls is given here.

How the values were obtained:
[1] = organism: Homo sapiens; assay: Binding affinity to human CCL13 at 100 uM by glycan microarray analysis
[2] = biological target: T1, C-C motif chemokine 2 (Homo sapiens, UniProt P13500); assay: Binding affinity to human CCL2 at 100 uM by glycan microarray analysis
Target sequence in this assay (P13500 24-99 limits assumed): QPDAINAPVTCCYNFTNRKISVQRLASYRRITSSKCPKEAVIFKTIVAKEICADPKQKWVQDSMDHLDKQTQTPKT

[3] = biological target: C-X-C motif chemokine 10 (Homo sapiens) (UniProt P02778); assay: Binding affinity to human CXCL10 at 100 uM by glycan microarray analysis
[4] = biological target: T2, C-C motif chemokine 5 (Homo sapiens) (UniProt P13501); assay: Binding affinity to human CCL5 at 100 uM by glycan microarray analysis
T2 sequence (whole entry): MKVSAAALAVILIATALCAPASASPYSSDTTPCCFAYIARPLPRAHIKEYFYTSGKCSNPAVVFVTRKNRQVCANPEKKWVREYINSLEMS

[5] = biological target: C-C motif chemokine 7 (Homo sapiens) (UniProt P80098); assay: Binding affinity to human CCL7 at 100 uM by glycan microarray analysis
C-C motif chemokine 7 (Homo sapiens), sequence (P80098 whole entry): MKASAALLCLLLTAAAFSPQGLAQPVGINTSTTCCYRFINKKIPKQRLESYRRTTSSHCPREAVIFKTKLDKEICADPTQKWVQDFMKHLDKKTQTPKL

[6] = biological target: Interleukin-8 (Homo sapiens) (UniProt P10145); assay: Binding affinity to human CXCL8 at 100 uM by glycan microarray analysis
[7] = biological target: T3, Stromal cell-derived factor 1 (Homo sapiens, UniProt P48061); assay: Binding affinity to human CXCL12 at 100 uM by glycan microarray analysis
T3 sequence (P48061 whole entry): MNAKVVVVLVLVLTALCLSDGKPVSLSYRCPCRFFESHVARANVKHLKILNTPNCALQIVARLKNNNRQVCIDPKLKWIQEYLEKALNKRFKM

[8] = organism: Homo sapiens; assay: Binding affinity to human CCL21 at 100 uM by glycan microarray analysis
[9] = organism: Homo sapiens; assay: Binding affinity to human CCL28 at 100 uM by glycan microarray analysis
[10] = system: MCF7; assay: Antimigratory activity against human MCF7 cells assessed as reduction in cell migration at 10 to 50 ug/ml measured after 5 hrs in presence of CCL2 by wound healing assay relative to control; format: functional; settings: dose 10-50 µg/ml
[11] = biological target: T1, C-C motif chemokine 2; assay: Binding affinity to human CCL2 assessed as off-rate constant incubated for 3 mins by surface plasmon resonance analysis
Target sequence in this assay (P13500 24-99 limits assumed): as the sequence (P13500 24-99 limits assumed) above

[12] = biological target: Interleukin-8 (Homo sapiens) (UniProt P10145); assay: Binding affinity to human CXCL8 assessed as off-rate constant incubated for 3 mins by surface plasmon resonance analysis
[13] = biological target: T1, C-C motif chemokine 2; assay: Binding affinity to human CCL2 assessed as on-rate constant incubated for 3 mins by surface plasmon resonance analysis
Target sequence in this assay (P13500 24-99 limits assumed): as above

[14] = biological target: Interleukin-8 (Homo sapiens) (UniProt P10145); assay: Binding affinity to human CXCL8 assessed as on-rate constant incubated for 3 mins by surface plasmon resonance analysis
[15] = system: MCF7; assay: Antiinvasive activity against human MCF7 cells assessed as inhibition of cell invasion at 50 ug/ml measured after 24 hrs in presence of CCL2 by crystal violet staining based Boyden chamber analysis; format: functional; settings: dose 50.0 µg/ml
[16] = system: MDA-MB-231; assay: Anti-proliferative activity against human MDA-MB-231 cells assessed as reduction in cell proliferation at 10 to 50 ug/ml compound pretreated with CCL2 followed by incubation with cells and measured after 48 hrs by Sulforhodamine B staining based WST assay; format: functional; settings: dose 10-50 µg/ml, at 10 to 50 µg/mL
[17] = biological target: T4, Interleukin-8 (Homo sapiens, UniProt P10145); assay: Binding affinity to human CXCL8 assessed as dissociation constant incubated for 3 mins by surface plasmon resonance analysis
T4 sequence (P10145 whole entry): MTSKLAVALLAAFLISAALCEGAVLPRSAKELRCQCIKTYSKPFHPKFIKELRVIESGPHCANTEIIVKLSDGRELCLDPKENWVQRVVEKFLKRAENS

[18] = system: MCF7; assay: Decrease in MAPK expression in human MCF7 cells at 50 ug/ml measured after 30 mins in presence of CCL2 by Western blot analysis; format: functional, cell-based; settings: dose 50.0 µg/ml
[19] = biological target: T5, C-X-C motif chemokine 10 (Homo sapiens, UniProt P02778); assay: Binding affinity to human CXCL10 assessed as dissociation constant incubated for 3 mins by surface plasmon resonance analysis
T5 sequence (P02778 whole entry): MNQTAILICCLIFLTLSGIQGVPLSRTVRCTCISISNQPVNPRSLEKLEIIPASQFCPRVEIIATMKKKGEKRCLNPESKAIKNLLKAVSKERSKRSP

[20] = biological target: T1, C-C motif chemokine 2; assay: Binding affinity to human CCL2 assessed as dissociation constant incubated for 3 mins by surface plasmon resonance analysis
Target sequence in this assay (P13500 whole entry): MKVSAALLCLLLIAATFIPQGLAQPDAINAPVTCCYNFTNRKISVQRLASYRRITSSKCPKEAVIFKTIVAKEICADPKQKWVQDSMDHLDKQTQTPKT

[21] = biological target: T2, C-C motif chemokine 5 (Homo sapiens); assay: Binding affinity to human CCL5 assessed as off-rate constant incubated for 3 mins by surface plasmon resonance analysis
[22] = biological target: T6, C-C motif chemokine 5 (Homo sapiens, UniProt P13501); assay: Binding affinity to human CCL5 assessed as dissociation constant incubated for 3 mins by surface plasmon resonance analysis
T6 sequence (P13501 whole entry): T2 sequence (whole entry)

[23] = biological target: T2, C-C motif chemokine 5 (Homo sapiens); assay: Binding affinity to human CCL5 assessed as on-rate constant incubated for 3 mins by surface plasmon resonance analysis
[24] = biological target: T3, Stromal cell-derived factor 1; assay: Binding affinity to human CXCL12 assessed as dissociation constant incubated for 3 mins by surface plasmon resonance analysis
[25] = system: MCF7; assay: Induction of cell cycle arrest in human MCF7 cells assessed as accumulation of cells at G2/M phase incubated for 72 hrs in presence of CCL2 by PI staining based flow cytometric analysis; format: functional
[26] = system: MCF7; assay: Anti-proliferative activity against human MCF7 cells assessed as reduction in cell proliferation at 10 to 50 ug/ml compound pretreated with CCL2 followed by incubation with cells and measured after 48 hrs by Sulforhodamine B staining based WST assay; format: functional; settings: dose 10-50 µg/ml, at 10 to 50 µg/mL

Row | SMILES | Activity [1] | Activity [2] | Activity [3] | Activity [4] | Activity [5] | Activity [6] | Activity [7] | Activity [8] | Activity [9] | further results
1 | NCCOCCO[C@@H]1O[C@@H](C(=O)O)[C@@H](O[C@@H]2O[C@@H](C(=O)O)[C@@H](OS(=O)(=O)O)[C@H](O)[C@H]2O)[C@H](O)[C@H]1O | 94% | 25% | 67% | 38% | 55% | 73% | 79% | 71% | 84% | 
2 | NCCOCCO[C@@H]1O[C@@H](C(=O)O)[C@@H](OS(=O)(=O)O)[C@H](O)[C@H]1O | 81% | 23% | 57% | 15% | 58% | 62% | 64% | 62% | 80% | 
3 | NCCOCCO[C@@H]1O[C@@H](C(=O)O)[C@@H](O[C@@H]2O[C@@H](C(=O)O)[C@@H](O[C@@H]3O[C@@H](C(=O)O)[C@@H](OS(=O)(=O)O)[C@H](O)[C@H]3OS(=O)(=O)O)[C@H](O)[C@H]2OS(=O)(=O)O)[C@H](O)[C@H]1OS(=O)(=O)O | 67% | 67% | 74% | 80% | 79% | 95% | 82% | 80% | 84% | 
4 | NCCOCCO[C@@H]1O[C@@H](C(=O)O)[C@@H](O[C@@H]2O[C@@H](C(=O)O)[C@@H](OS(=O)(=O)O)[C@H](O)[C@H]2OS(=O)(=O)O)[C@H](O)[C@H]1OS(=O)(=O)O | 88% | 69% | 96% | 86% | 87% | 83% | 98% | 86% | 76% | 
5 | NCCOCCO[C@@H]1O[C@@H](C(=O)O)[C@@H](OS(=O)(=O)O)[C@H](O)[C@H]1OS(=O)(=O)O | 53% | 66% | 82% | 75% | 94% | 71% | 75% | 79% | 51% | 
6 | NCCOCCO[C@@H]1O[C@@H](C(=O)O)[C@@H](O[C@@H]2O[C@@H](C(=O)O)[C@@H](O)[C@H](O)[C@H]2O)[C@H](O)[C@H]1O | 82% | 2% | 45% | 2% | 30% | 12% | 66% | 63% | 58% | 
7 | NCCOCCO[C@@H]1O[C@@H](C(=O)O)[C@@H](O[C@@H]2O[C@@H](C(=O)O)[C@@H](O[C@@H]3O[C@@H](C(=O)O)[C@@H](O[C@@H]4O[C@@H](C(=O)O)[C@@H](O)[C@H](O)[C@H]4O)[C@H](O)[C@H]3O)[C@H](O)[C@H]2O)[C@H](O)[C@H]1O | 67% | 2% | 44% | 2% | 33% | 12% | 56% | 48% | 56% | 
8 | NCCOCCO[C@@H]1O[C@@H](C(=O)O)[C@@H](O)[C@H](O)[C@H]1O | 74% | 4% | 47% | 2% | 30% | 17% | 62% | 52% | 46% | 
9 | NCCOCCO[C@@H]1O[C@@H](C(=O)O)[C@@H](O[C@@H]2O[C@@H](C(=O)O)[C@@H](O[C@@H]3O[C@@H](C(=O)O)[C@@H](O[C@@H]4O[C@@H](C(=O)O)[C@@H](OS(=O)(=O)O)[C@H](O)[C@H]4O)[C@H](O)[C@H]3O)[C@H](O)[C@H]2O)[C@H](O)[C@H]1O | 72% | 0% | 23% | 10% | 12% | 13% | 45% | 60% | 54% | Activity [10]: inactive
10 | NCCOCCO[C@@H]1O[C@@H](C(=O)O)[C@@H](O[C@@H]2O[C@@H](C(=O)O)[C@@H](O[C@@H]3O[C@@H](C(=O)O)[C@@H](O[C@@H]4O[C@@H](C(=O)O)[C@@H](OS(=O)(=O)O)[C@H](O)[C@H]4OS(=O)(=O)O)[C@H](O)[C@H]3OS(=O)(=O)O)[C@H](O)[C@H]2OS(=O)(=O)O)[C@H](O)[C@H]1OS(=O)(=O)O | 70% | 88% | 87% | 91% | 80% | 96% | 91% | 50% | 72% | K [11]: 2.1 10^-1/s; K [12]: 2.96 10^-1/s; K [13]: 1.26 10^5/M/s; K [14]: 3.16 10^5/M/s; inhibition (INH) ([10]; at 10 to 50 µg/mL): 34%; Activity [15]: Active; inhibition (INH) [16]: 40%; Kd [17]: 9.34 µM; inhibition [18]: Active; Kd [19]: 19.5 µM; Kd [20]: 1.67 µM; K [21]: 2.4 10^-1/s; Kd [22]: 5.72 µM; K [23]: 4.2 10^4/M/s; Kd [24]: 18.8 µM; Activity [25]: 19%; inhibition (INH) [26]: 40%
11 | NCCOCCO[C@@H]1O[C@@H](C(=O)O)[C@@H](O[C@@H]2O[C@@H](C(=O)O)[C@@H](O[C@@H]3O[C@@H](C(=O)O)[C@@H](OS(=O)(=O)O)[C@H](O)[C@H]3O)[C@H](O)[C@H]2O)[C@H](O)[C@H]1O | 86% | 36% | 78% | 30% | 75% | 63% | 92% | 83% | 80% | 
12 | NCCOCCO[C@@H]1O[C@@H](C(=O)O)[C@@H](O[C@@H]2O[C@@H](C(=O)O)[C@@H](O[C@@H]3O[C@@H](C(=O)O)[C@@H](O)[C@H](O)[C@H]3O)[C@H](O)[C@H]2O)[C@H](O)[C@H]1O | 69% | 0% | 24% | 1% | 17% | 5% | 38% | 46% | 72% | 
